Target: T1, adenosine A2a receptor (Homo sapiens, UniProt P29274)
T1 construct: expressed in transfected cells; host or cells: CHO cells, transient lipofection
Assay: Screening of adenosine A2a receptor antagonist using change in cAMP level as index
Format: cell-based
Details: 10 μM test substance with 10 μM adenosine, CHO cells with A2a receptor and Gm1, cAMP level
Description: Then, 10 μM of adenosine as a GPCR ligand and 10 μM of a test substance (DMPX) were added and incubated at 37° C. for 30 minutes.
A substance which gave a cAMP level percentage of 85% or less upon contact of the cell with the ligand and the test substance was selected as a signal transduction inhibitor (antagonist), on the basis of the cAMP level with no contact being 0% and the cAMP level with the contact of the cell only with the ligand being 100% (FIG. 4).

T1 sequence (P29274 whole entry): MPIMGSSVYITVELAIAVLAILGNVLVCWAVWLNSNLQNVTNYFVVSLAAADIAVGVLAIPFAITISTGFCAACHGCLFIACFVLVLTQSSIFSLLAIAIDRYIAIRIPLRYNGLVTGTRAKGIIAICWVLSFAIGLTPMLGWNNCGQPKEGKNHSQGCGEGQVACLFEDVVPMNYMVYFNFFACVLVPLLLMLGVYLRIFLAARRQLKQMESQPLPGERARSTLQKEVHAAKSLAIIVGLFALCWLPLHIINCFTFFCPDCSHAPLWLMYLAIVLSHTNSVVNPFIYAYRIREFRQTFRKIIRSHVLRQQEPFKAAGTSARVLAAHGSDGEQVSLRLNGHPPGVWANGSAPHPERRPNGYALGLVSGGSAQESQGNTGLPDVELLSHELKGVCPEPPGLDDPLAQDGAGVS

Question: With `C#CCn1c(=O)c2c(ncn2C)n(C)c1=O` [DMPX] as the compound, how does the “adenosine A2a receptor antagonistic effects (FIG. 4)” value read?
Answer: antagonistic effects
